Results: PubChem BioAssay (NCI)
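Test compounds were applied to cells in 96-well plates for 48 hours at 5 doses. At the GI50, growth is halved. Definition used: TGI = concentration required for complete inhibition of growth.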

How the values were obtained:
Test in all cases: growth of human tumour cells (NCI), 48 h
[1] = system: HT29 colon
[2] = system: SNB-75 CNS
[3] = system: SF-295 CNS
[4] = system: SN12C renal
[5] = system: MALME-3M melanoma
[6] = system: SK-MEL-5 melanoma
[7] = system: LOX IMVI melanoma
[8] = system: SF-539 CNS
[9] = system: A498 renal
[10] = system: A549 NSCLC

SMILES: CS(=O)(=O)c1nccc(-c2c(-c3cccc(OCc4ccccc4)c3)nc3sccn23)n1
- GI50 [1]: > 41.2 µM
- TGI [1]: > 100 µM
- GI50 [2]: > 28.5 µM
- TGI [2]: > 100 µM
- GI50 [3]: > 100 µM
- TGI [3]: > 100 µM
- GI50 [4]: 26.2 µM
- TGI [4]: > 100 µM
- GI50 [5]: 16.4 µM
- TGI [5]: > 100 µM
- GI50 [6]: 1.39 µM
- TGI [6]: 10 µM
- GI50 [7]: 5.13 µM
- TGI [7]: > 100 µM
- GI50 [8]: > 60.4 µM
- TGI [8]: > 100 µM
- GI50 [9]: 13.5 µM
- TGI [9]: > 89.9 µM
- GI50 [10]: > 71.1 µM
- TGI [10]: > 100 µM

SMILES: COc1cc(/C=C/C(=O)c2ccc(F)cc2)ccc1OCCCCOc1cc2c(cc1OC)C(=O)N1CCCC1C=N2 (centres undefined)
- GI50 [1]: 0.895 µM
- TGI [1]: > 20.4 µM
- GI50 [2]: 0.994 µM
- TGI [2]: 15 µM
- GI50 [3]: 0.707 µM
- GI50 [4]: 1.68 µM
- TGI [4]: 15.9 µM
- GI50 [5]: 0.835 µM
- TGI [5]: 18.3 µM
- GI50 [6]: 0.758 µM
- TGI [6]: 5.37 µM
- GI50 [7]: 0.472 µM
- TGI [7]: 1.11 µM
- GI50 [8]: 0.641 µM
- TGI [8]: 1.62 µM
- GI50 [9]: 0.882 µM
- TGI [9]: 5.48 µM
- GI50 [10]: 2.46 µM
- TGI [10]: > 21.9 µM

SMILES: COc1ccc(C(=O)OC2C(OC3C(O)COC(O[C@H]4C[C@H]5[C@@H]6CC=C7C[C@@H](O)CC[C@]7(C)[C@H]6CC[C@]5(C)[C@H]4[C@H](C)C(=O)CCC(C)C)C3OC(=O)C(C)C)OCC(O)C2O)cc1 (some centres undefined)
- GI50 [1]: 0.0507 µM
- TGI [1]: 4.85 µM
- GI50 [2]: 0.00698 µM
- TGI [2]: 4.9 µM
- GI50 [3]: < 0.00275 µM
- TGI [3]: 0.00385 µM
- GI50 [4]: 3.02 µM
- TGI [4]: 6.53 µM
- GI50 [5]: 0.0411 µM
- TGI [5]: 2.88 µM
- GI50 [6]: 0.019 µM
- TGI [6]: 0.36 µM
- GI50 [7]: 0.0107 µM
- TGI [7]: 0.0488 µM
- GI50 [8]: < 0.00275 µM
- TGI [8]: 0.0289 µM
- GI50 [9]: 0.00395 µM
- TGI [9]: 0.0161 µM
- GI50 [10]: 0.0224 µM
- TGI [10]: 4.58 µM

SMILES: O=C1C2=C(C(=O)c3c(O)ccc(O)c31)N(c1cccnc1)Cc1ccccc1O2
- GI50 [1]: 0.313 µM
- TGI [1]: 4.23 µM
- GI50 [2]: 0.615 µM
- TGI [2]: 2.15 µM
- GI50 [3]: 2.43 µM
- TGI [3]: 8.4 µM
- GI50 [4]: 0.312 µM
- TGI [4]: 1.02 µM
- GI50 [5]: 0.164 µM
- TGI [5]: 0.385 µM
- GI50 [6]: 1.33 µM
- TGI [6]: 2.99 µM
- GI50 [7]: 0.127 µM
- TGI [7]: 0.56 µM
- GI50 [8]: 0.378 µM
- TGI [8]: 1.36 µM
- GI50 [9]: 2.37 µM
- TGI [9]: 5.32 µM
- GI50 [10]: 2.85 µM
- TGI [10]: 19.9 µM

SMILES: CN1C(=O)C(C)(C)NS1(=O)=O
- TGI [1]: > 100 µM
- TGI [2]: > 100 µM
- TGI [3]: > 100 µM
- TGI [4]: > 100 µM
- TGI [5]: > 100 µM
- TGI [6]: > 100 µM
- TGI [7]: > 100 µM
- TGI [8]: > 100 µM
- TGI [9]: > 100 µM
- TGI [10]: > 100 µM

SMILES: C/C(=N\N)C(CN1CCCCC1)C(c1ccccc1)c1c(O)c2ccccc2oc1=O (centres undefined)
- TGI [1]: > 100 µM
- TGI [2]: > 100 µM
- TGI [3]: > 100 µM
- TGI [4]: > 100 µM
- TGI [5]: > 100 µM
- TGI [6]: > 100 µM
- TGI [7]: > 31.6 µM
- TGI [8]: > 100 µM
- TGI [9]: > 100 µM
- TGI [10]: > 100 µM

SMILES: C=C(c1ccccc1)[C@@]1(O)CCCC[C@H]1NC(c1ccccc1)c1ccccc1
- TGI [1]: 27.3 µM
- TGI [2]: 63.6 µM
- TGI [3]: 25.1 µM
- TGI [4]: 29 µM
- TGI [5]: 30.7 µM
- TGI [6]: 22.8 µM
- TGI [7]: 21.9 µM
- TGI [8]: 32.7 µM
- TGI [9]: 27.7 µM
- TGI [10]: 26.2 µM

SMILES: COc1cccc(-c2cc(C(=O)Nc3ccc(Cl)cc3)nc(N)n2)c1
- TGI [1]: > 100 µM
- TGI [2]: 68.1 µM
- TGI [3]: > 100 µM
- TGI [4]: > 100 µM
- TGI [5]: > 100 µM
- TGI [6]: > 100 µM
- TGI [7]: > 100 µM
- TGI [8]: > 100 µM
- TGI [9]: > 100 µM
- TGI [10]: > 100 µM

SMILES: CC/C=C\C[C@H](O)C/C=C1/C(=O)C=C[C@@H]1C/C=C\CCCC(=O)OCCS(=O)(=O)c1ccccc1
- GI50 [1]: 3.29 µM
- TGI [1]: 8.54 µM
- GI50 [2]: 17.2 µM
- TGI [2]: 88.8 µM
- GI50 [3]: 3.74 µM
- TGI [3]: 14.1 µM
- GI50 [4]: 3.62 µM
- TGI [4]: 19.1 µM
- GI50 [5]: 6.71 µM
- TGI [5]: 22.3 µM
- GI50 [6]: 1.99 µM
- TGI [6]: 4.06 µM
- GI50 [7]: 1.44 µM
- TGI [7]: 3.66 µM
- GI50 [8]: 4.68 µM
- TGI [8]: 16.9 µM
- GI50 [9]: 19.1 µM
- TGI [9]: 35.5 µM
- GI50 [10]: 6.04 µM
- TGI [10]: 25.8 µM

SMILES: C=C(C)[C@@H]1CC[C@]2(C(=O)N3CCN(C)CC3)CC[C@]3(C)[C@H](CC[C@@H]4[C@@]5(C)C/C(=C/c6ccncc6)[C@H](O)C(C)(C)[C@@H]5CC[C@]43C)[C@@H]12
- GI50 [1]: 1.88 µM
- TGI [1]: 11.2 µM
- GI50 [2]: 51.4 µM
- TGI [2]: > 100 µM
- GI50 [3]: 7.2 µM
- TGI [3]: 25.5 µM
- GI50 [4]: 6.22 µM
- TGI [4]: 22.3 µM
- GI50 [5]: 2.08 µM
- TGI [5]: 6.07 µM
- GI50 [6]: 5.98 µM
- TGI [6]: 18.5 µM
- GI50 [7]: 4.01 µM
- TGI [7]: 17.3 µM
- GI50 [8]: 4.12 µM
- TGI [8]: 16.5 µM
- GI50 [9]: 17.4 µM
- TGI [9]: 41.1 µM
- GI50 [10]: 5.2 µM
- TGI [10]: > 100 µM

SMILES: CC12CCC(=O)N1c1cc([N+](=O)[O-])ccc1N2 (centres undefined)
- TGI [1]: > 100 µM
- TGI [2]: > 100 µM
- TGI [3]: > 100 µM
- TGI [4]: > 100 µM
- TGI [5]: > 100 µM
- TGI [6]: > 100 µM
- TGI [7]: > 100 µM
- TGI [8]: > 100 µM
- TGI [9]: > 100 µM
- TGI [10]: > 100 µM
